Test results published in US9102678B2, “Compounds and methods for inhibiting mitotic progression” (Millennium Pharmaceuticals, Inc., priority 2004, dated 2015).

Target: T1, recombinant murine Aurora A enzyme (Mus musculus, UniProt P97477)
T1 construct: hexahistidine (His6) (N); made in house; host or cells: insect cells, baculovirus (Bac-to-Bac, Invitrogen)
Assay: Aurora A DELFIA Kinase Assay
Assay type: biochemical
Details: mouse Aurora A, 250 μM ATP; threshold less than or equal to 100 nM; read-out: IC50

T1 sequence (P97477 whole entry): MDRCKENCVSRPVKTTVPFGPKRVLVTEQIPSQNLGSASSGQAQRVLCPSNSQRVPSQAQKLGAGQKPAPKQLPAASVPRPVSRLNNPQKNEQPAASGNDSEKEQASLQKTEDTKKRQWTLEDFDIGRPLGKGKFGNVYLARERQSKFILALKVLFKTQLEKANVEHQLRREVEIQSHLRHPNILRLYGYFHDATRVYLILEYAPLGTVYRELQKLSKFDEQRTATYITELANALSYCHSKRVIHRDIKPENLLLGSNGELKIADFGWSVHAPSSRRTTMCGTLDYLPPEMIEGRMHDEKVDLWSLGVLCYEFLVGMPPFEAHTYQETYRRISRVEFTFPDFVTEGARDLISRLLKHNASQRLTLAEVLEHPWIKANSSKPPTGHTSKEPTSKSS

Structure (SMILES)	IC50
Cc1ccc2c(c1)C(c1ccccc1F)=NCc1cnc(Nc3ccc(C(=O)NCCCN4CCN(C)CC4)cc3)nc1-2 [Compound I-24, 4-[7-(2-Fluoro-phenyl)-9-methyl-5H-benzo[c]pyrimido[4,5-e]azepin-2-ylamino]-N-[3-(4-methyl-piperazin-1-yl)-propyl]-benzamide]	≤ 100 nM
CNC1CCN(C(=O)c2ccc(Nc3ncc4c(n3)-c3ccc(Cl)cc3C(c3c(F)cccc3F)=NC4)cc2)C1 (stereo not drawn) [Compound I-197, {4-[9-Chloro-7-(2,6-difluoro-phenyl)-5H-benzo[c]pyrimido[4,5-e]azepin-2-ylamino]-phenyl}-(3-methylamino-pyrrolidin-1-yl)-methanone]	≤ 100 nM
NC1(C(=O)O)CCN(C(=O)c2ccc(Nc3ncc4c(n3)-c3ccc(Cl)cc3C(c3c(F)cccc3F)=NC4)cc2)CC1 [Compound I-295, 4-amino-1-(4-{[9-chloro-7-(2,6-difluorophenyl)-5H-pyrimido[5,4-d][2]benzazepin-2-yl]amino}benzoyl)piperidine-4-carboxylic acid]	≤ 100 nM
CN(C)C1CCN(C(=O)c2ccc(Nc3ncc4c(n3)-c3ccc(Cl)cc3C(c3c(F)cccc3F)=NC4)cc2Cl)C1 (stereo not drawn) [Compound I-215, 9-chloro-N-(3-chloro-4-{[3-(dimethylamino)pyrrolidin-1-yl]carbonyl}phenyl)-7-(2,6-difluorophenyl)-5H-pyrimido[5,4-d][2]benzazepin-2-amine]	≤ 100 nM
CN1CCC(N(C)C(=O)c2ccc(Nc3ncc4c(n3)-c3ccc(Cl)cc3C(c3ccccc3F)=NC4)cc2)CC1 [Compound I-128, 4-[9-Chloro-7-(2-fluoro-phenyl)-5H-benzo[c]pyrimido[4,5-e]azepin-2-ylamino]-N-methyl-N-(1-methyl-piperidin-4-yl)-benzamide]	≤ 100 nM
COc1ccc2c(c1)C(c1ccccc1F)=NCc1cnc(Nc3ccc(C(=O)N4CCC(N(C)C)C4)cc3)nc1-2 (stereo not drawn) [Compound I-93, (3-Dimethylamino-pyrrolidin-1-yl)-{4-[7-(2-fluoro-phenyl)-9-methoxy-5H-benzo[c]pyrimido[4,5-e]azepin-2-ylamino]-phenyl}-methanone]	≤ 100 nM
CCOC(=O)C(N)CCNC(=O)c1ccc(Nc2ncc3c(n2)-c2ccc(Cl)cc2C(c2c(F)cccc2F)=NC3)cc1 (stereo not drawn) [Compound I-300, ethyl 2-amino-4-[(4-{[9-chloro-7-(2,6-difluorophenyl)-5H-pyrimido[5,4-d][2]benzazepin-2-yl]amino}benzoyl)amino]butanoate]	≤ 100 nM
O=C(c1ccc(Nc2ncc3c(n2)-c2ccc(Cl)cc2C(c2ccccc2Cl)=NC3)cc1)N1CCOCC1 [Compound I-28, {4-[9-Chloro-7-(2-chloro-phenyl)-5H-benzo[c]pyrimido[4,5-e]azepin-2-ylamino]-phenyl}-morpholin-4-yl-methanone]	≤ 100 nM
COc1ccc(Nc2ncc3c(n2)-c2ccc(Cl)cc2C(c2ccccc2Cl)=NC3)cc1OC [Compound I-73, [9-Chloro-7-(2-chloro-phenyl)-5H-benzo[c]pyrimido[4,5-e]azepin-2-yl]-(3,4-dimethoxy-phenyl)-amine]	≤ 100 nM
COc1cccc(F)c1C1=NCc2cnc(Nc3ccc(C(=O)N4CCC(N(C)C)C4)cc3)nc2-c2ccc(Cl)cc21 (stereo not drawn) [Compound I-178, 9-Chloro-N-(4-{[3-(dimethylamino)pyrrolidin-1-yl]carbonyl}phenyl)-7-(2-fluoro-6-methoxyphenyl)-5H-pyrimido[5,4-d][2]benzazepin-2-amine]	≤ 100 nM
CN1CCN(C(=O)c2cccc(Nc3ncc4c(n3)-c3ccc(Cl)cc3C(c3ccccc3F)=NC4)c2)CC1 [Compound I-163, {3-[9-Chloro-7-(2-fluoro-phenyl)-5H-benzo[c]pyrimido[4,5-e]azepin-2-ylamino]-phenyl}-(4-methyl-piperazin-1-yl)-methanone]	≤ 100 nM
CN(C)CC#Cc1cccc(Nc2ncc3c(n2)-c2ccc(Cl)cc2C(c2c(F)cccc2F)=NC3)c1 [Compound I-343, 9-chloro-7-(2,6-difluorophenyl)-N-{3-[3-(dimethylamino)prop-1-yn-1-yl]phenyl}-5H-pyrimido[5,4-d][2]benzazepin-2-amine]	≤ 100 nM
O=C(NCCc1ccccn1)c1ccc(Nc2ncc3c(n2)-c2ccc(Cl)cc2C(c2ccccc2F)=NC3)cc1 [Compound I-161, 4-[9-Chloro-7-(2-fluoro-phenyl)-5H-benzo[c]pyrimido[4,5-e]azepin-2-ylamino]-N-(2-pyridin-2-yl-ethyl)-benzamide]	≤ 100 nM
CN1CCC(N(C)C(=O)c2ccc(Nc3ncc4c(n3)-c3ccc(Cl)cc3C(c3ccccc3F)=NC4)cc2)C1 (stereo not drawn) [Compound I-99, 4-[9-Chloro-7-(2-fluoro-phenyl)-5H-benzo[c]pyrimido[4,5-e]azepin-2-ylamino]-N-methyl-N-(1-methyl-pyrrolidin-3-yl)-benzamide]	≤ 100 nM
COc1cccc(F)c1C1=NCc2cnc(Nc3ccc(C(=O)O)cc3)nc2-c2ccc(Cl)cc21 [Compound I-190, 4-[9-Chloro-7-(2-fluoro-6-methoxy-phenyl)-5H-benzo[c]pyrimido[4,5-e]azepin-2-ylamino]-benzoic acid]	≤ 100 nM
NC(=O)C1CN(C(=O)c2ccc(Nc3ncc4c(n3)-c3ccc(Cl)cc3C(c3c(F)cccc3F)=NC4)cc2)CCN1 (stereo not drawn) [Compound I-317, 4-(4-{[9-chloro-7-(2,6-difluorophenyl)-5H-pyrimido[5,4-d][2]benzazepin-2-yl]amino}benzoyl)piperazine-2-carboxamide]	≤ 100 nM
O=C(O)c1coc(Nc2ncc3c(n2)-c2ccc(Cl)cc2C(c2c(F)cccc2F)=NC3)n1 [Compound I-368, 2-{[9-chloro-7-(2,6-difluorophenyl)-5H-pyrimido[5,4-d][2]benzazepin-2-yl]amino}-1,3-oxazole-4-carboxylic acid]	≤ 100 nM
CNCCCN(C)C(=O)c1ccc(Nc2ncc3c(n2)-c2ccc(Cl)cc2C(c2c(F)cccc2F)=NC3)cc1 [Compound I-198, 4-[9-Chloro-7-(2,6-difluoro-phenyl)-5H-benzo[c]pyrimido[4,5-e]azepin-2-ylamino]-N-methyl-N-(3-methylamino-propyl)-benzamide]	≤ 100 nM
NCCCc1cccc(Nc2ncc3c(n2)-c2ccc(Cl)cc2C(c2c(F)cccc2F)=NC3)c1 [Compound I-373, N-[3-(3-aminopropyl)phenyl]-9-chloro-7-(2,6-difluorophenyl)-5H-pyrimido[5,4-d][2]benzazepin-2-amine]	≤ 100 nM
NC1CCN(C(=O)c2ccc(Nc3ncc4c(n3)-c3ccc(Cl)cc3C(c3c(F)cccc3F)=NC4)cc2)CC1 [Compound I-239, N-{4-[(4-aminopiperidin-1-yl)carbonyl]phenyl}-9-chloro-7-(2,6-difluorophenyl)-5H-pyrimido[5,4-d][2]benzazepin-2-amine]	≤ 100 nM
CNC1CCN(C(=O)c2ccc(Nc3ncc4c(n3)-c3ccc(Cl)cc3C(c3c(F)cccc3Cl)=NC4)cc2)CC1 [Compound I-325, 9-chloro-7-(2-chloro-6-fluorophenyl)-N-(4-{[4-(methylamino)piperidin-1-yl]carbonyl}phenyl)-5H-pyrimido[5,4-d][2]benzazepin-2-amine]	≤ 100 nM
CN(C)C1CCN(C(=N)c2ccc(Nc3ncc4c(n3)-c3ccc(Cl)cc3C(c3c(F)cccc3F)=NC4)cc2)CC1 [Compound I-244, 9-chloro-7-(2,6-difluorophenyl)-N-{4-[[4-(dimethylamino)piperidin-1-yl](imino)methyl]phenyl}-5H-pyrimido[5,4-d][2]benzazepin-2-amine]	≤ 100 nM
O=C(c1ccc(Nc2ncc3c(n2)-c2ccc(Cl)cc2C(c2ccccc2F)=NC3)cc1)N1CCN(CCN2CCOCC2)CC1 [Compound I-189, {4-[9-Chloro-7-(2-fluoro-phenyl)-5H-benzo[c]pyrimido[4,5-e]azepin-2-ylamino]-phenyl}-[4-(2-morpholin-4-yl-ethyl)-piperazin-1-yl]-methanone]	≤ 100 nM
NC(=O)c1ccc(Nc2ncc3c(n2)-c2ccc(Cl)cc2C(c2ccccc2Cl)=NC3)cc1 [Compound I-63, 4-[9-Chloro-7-(2-chloro-phenyl)-5H-benzo[c]pyrimido[4,5-e]azepin-2-ylamino]-benzamide]	≤ 100 nM
CNC1CN(C(=O)c2ccc(Nc3ncc4c(n3)-c3ccc(Cl)cc3C(c3c(F)cccc3F)=NC4)cc2)C1 [Compound I-234, 9-chloro-7-(2,6-difluorophenyl)-N-(4-{[3-(methylamino)azetidin-1-yl]carbonyl}phenyl)-5H-pyrimido[5,4-d][2]benzazepin-2-amine]	≤ 100 nM
CCN(CC)CCN1CCN(C(=O)c2ccc(Nc3ncc4c(n3)-c3ccc(Cl)cc3C(c3ccccc3F)=NC4)cc2)CC1 [Compound I-209, 9-chloro-N-[4-({4-[2-(diethylamino)ethyl]piperazin-1-yl}carbonyl)phenyl]-7-(2-fluorophenyl)-5H-pyrimido[5,4-d][2]benzazepin-2-amine]	≤ 100 nM
CN(C)C1CCN(C(=O)c2cccc(Nc3ncc4c(n3)-c3ccc(Cl)cc3C(c3c(F)cccc3F)=NC4)c2)C1 (stereo not drawn) [Compound I-206, 9-chloro-7-(2,6-difluorophenyl)-N-(3-{[3-(dimethylamino)pyrrolidin-1-yl]carbonyl}phenyl)-5H-pyrimido[5,4-d][2]benzazepin-2-amine]	≤ 100 nM
O=C(O)c1ccc(Nc2ncc3c(n2)-c2ccc(Cl)cc2C(c2ncccc2F)=NC3)cc1 [Compound I-301, 4-{[9-chloro-7-(3-fluoropyridin-2-yl)-5H-pyrimido[5,4-d][2]benzazepin-2-yl]amino}benzoic acid]	≤ 100 nM
COc1cccc(F)c1C1=NCc2cnc(Nc3ccc(C(=O)N4CCNC(C)C4)cc3)nc2-c2ccc(Cl)cc21 (stereo not drawn) [Compound I-232]	≤ 100 nM
CN1CCN(C(=O)c2ccc(Nc3ncc4c(n3)-c3ccc(Cl)cc3C(c3ccccc3Cl)=NC4)cc2)CC1 [Compound I-10, {4-[9-Chloro-7-(2-chloro-phenyl)-5H-benzo[c]pyrimido[4,5-e]azepin-2-ylamino]-phenyl}-(4-methyl-piperazin-1-yl)-methanone]	≤ 100 nM
